Reference: patent US6387956B1, “Methods of treating obsessive-compulsive spectrum disorders” (University of Cincinnati, priority 1999, dated 2002)
Counter-ions that a name gives are not always drawn.

Experiments:
[1] = system: Tourette's syndrome; assay: Example 4: case of a patient with major depressant disorder and Tourette's syndrome, motor tics; format: in vivo; details: 50 mg twice a day added to bupropion
Procedure: A patient with a history of recurrent major depressant disorder was treated with extended release bupropion (1-(3-chlorophenyl)-2-[(1,1-dimethylethyl)amino]-1-[…]), at a total dose of 300 mg per day (200 mg in the morning and 100 mg in the evening). […] The patient also reported a history of purging. […] The patient was diagnosed as having major depressant disorder and Tourette's syndrome.
The bupropion was supplemented with 50 mg twice a day of tramadol. […] The patient estimated that the number of tics was reduced by about two-thirds after starting the tramadol. The patient's bupropion dose was increased to 400 mg per day (200 mg twice a day), while the tramadol dose was maintained at 50 mg twice a day. The patient was informed the tramadol dose could be increased to 50 mg four times a day if the number of tics increased.

[2] = system: OCD; assay: Example 2: case of a person with OCD, Y-BOCS; format: in vivo, patient
Procedure: The tramadol hydrochloride therapy was then supplemented with 20 mg per day of fluoxetine, and three weeks later the fluoxetine was increased to 40 mg daily.

[3] = Weight and appetite during the six week tramadol hydrochloride study; format: in vivo, patients
Procedure: (§1) Exclusion criteria for the study included a life-time DSM-IV diagnosis of mania, psychotic disorder, alcohol or substance abuse or dependence, prior history of hypersensitivity to tramadol or any other opioid, a history of seizures, including childhood febrile seizures, and any clinically relevant abnormal laboratory results or clinically unstable medical conditions. […] The patients were not concurrently receiving behavioral therapy.
(§2) Patients were evaluated using the Yale-Brown Obsessive Compulsive Scale (Y-BOCS), the Hamilton Rating Scale for Depression (HAM-D) and the Clinical Global Impression Scale (CGI). Subsequent to screening, the individuals received a six week treatment with tramadol hydrochloride. The tramadol hydrochloride was initially administered at 50 mg four times a day for the first week. If there was less than a 20% drop in baseline Y-BOCS scores by the end of week one, the tramadol hydrochloride dose was advanced slowly over 1 to 2 weeks to a maximum of 400 mg per day in 3 to 5 divided doses. Weekly measurements with the Y-BOCS, HAM-D and CGI were used to assess responses. Y-BOCS and HAM-D values at the start and end of the trial were compared using the Wilcoxon signed-ranks test.
Weekly mean ± standard deviation of weight and tramadol doses for the patients are set forth below in Table 2, while weights and tramadol hydrochloride doses for individual patients are set forth in Table 3. For data analysis purposes, when an individual's weight was not available, the weight from the previous week was carried forward.

[4] = system: SRI-treatment refractory OCD; assay: Six week tramadol hydrochloride treatment of SRI-refractory OCD patients, assessed with Y-BOCS, HAM-D and CGI; format: in vivo
Procedure: as §1, §2
The mean ± standard deviation dose of tramadol hydrochloride for the six patients completing at least two weeks was 254±119 mg/day (divided into from 3 to 5 doses). The mean ± standard deviation of baseline and endpoint Y-BOCS, HAM-D and severity of illness CGI and global improvement CGI are set forth below in Table 1. […] The scores for the patient who dropped out in week 6 were carried forward from week 5.

[5] = Example 3: weight of a OCD patient during 11 months of tramadol hydrochloride; format: in vivo
Procedure: A OCD patient was treated with tramadol hydrochloride for a total of 11 months, during the last month of the study the patient was titrated off the tramadol hydrochloride. The only additional prescribed medication was alendronic acid ((4-amino-1-hydroxybutylidene)bisphosphonic acid) started at week 6 for osteoporosis unrelated to tramadol use. (The patient has a family history of osteoporosis and previous steroid use.) The patient's weight and tramadol hydrochloride doses are set forth in Table 4 below.

[6] = during tramadol hydrochloride treatment

COc1cccc([C@]2(O)CCCC[C@H]2CN(C)C)c1 (racemic) [tramadol, (±)cis-2-[(dimethylamino)methyl]-1(3-methoxyphenyl) cyclohexanol]
side effects [1]: without any side effects

COc1cccc(C2(O)CCCCC2CN(C)C)c1 (mixture of isomers) [tramadol hydrochloride, (±) cis-2-[(dimethylamino)methyl]-1(3-methoxyphenyl)cyclohexanolhydrochloride]
time to reported decrease in obsessions and compulsions ([2]; 50 mg twice a day): ≤ 24 h
Y-BOCS score ([2]; after one week of treatment, score prior to treatment 26): 19
Weight, mean ± SD ([3]; Week 1, seven patients, baseline 173.36 ± 29.58): 172.46 ± 29.9 lbs
Weight, mean ± SD ([3]; Week 2, seven patients): 170.39 ± 29.1 lbs
Weight, mean ± SD ([3]; Week 3, seven patients): 170.5 ± 29.64 lbs
Weight, mean ± SD ([3]; Week 4, seven patients): 169.46 ± 28.62 lbs
Weight, mean ± SD ([3]; Week 5, seven patients): 169.1 ± 28 lbs
Weight, mean ± SD ([3]; Week 6, seven patients): 167.5 ± 26.54 lbs
weight lost on average ([3]; seven patients, six week treatment): 5.86 pounds
appetite, patient reported ([3]; six week treatment): decreased appetite
withdrawal Y-BOCS score, average, after withdrawal ([4]; 3 patients stopping tramadol hydrochloride without adding another agent, followed for two weeks): 19.7
withdrawal Y-BOCS score, average, at stopping ([4]; 3 patients stopping tramadol hydrochloride without adding another agent, start of withdrawal): 14.3
adverse event leading to discontinuation ([4]; another patient, during week 6): panic attack
Y-BOCS scores during treatment [4, 6]: decreased
change in HAM-D scores [4, 6]: no significant change
Global Improvement CGI, mean ± SD, ENDPOINT ([4]; endpoint of six week treatment, six patients, baseline 5.2 ± 0.8, 2=much improved, 3=minimally improved, 4=no change): 2.3 ± 1.0
Severity of Illness CGI, mean ± SD, ENDPOINT ([4]; endpoint of six week treatment, six patients, baseline 5.3 ± 1.5, 4=moderately ill, 5=markedly ill, 6=severely ill): 4.5 ± 1.2
HAM-D, mean ± SD, ENDPOINT ([4]; endpoint of six week treatment, six patients, baseline 27.7 ± 15.9): 28.8 ± 9.8
urges or pressures to perform the compulsions, patient reported ([4]; obsessions persisted in a muted form): diminished
adverse event leading to discontinuation ([4]; one patient, during week 1): nausea and exacerbation of trichotillomania
decrease in Y-BOCS scores within the first week ([4]; three of the seven patients, rapid onset of response): greater than 6 point
compulsive urges after the first dose ([4]; two individuals, first 50 mg dose): alleviation
Weight ([5]; Month 3, 350 mg/day for 2 weeks, followed by 400 mg/day): 127.0 lbs
Weight ([5]; Month 4, 400 mg/day): 124.5 lbs
Weight ([5]; Month 5, 400 mg/day): 124.75 lbs
Weight ([5]; Month 6, 400 mg/day, alendronic acid started): 124.5 lbs
Weight ([5]; Month 7, 400 mg/day): 127.0 lbs
Weight ([5]; Month 8, 400 mg/day): 125.0 lbs
Weight ([5]; Month 9, 300 mg/day): 128.0 lbs
Weight ([5]; Month 10, 150 mg/day): 127.5 lbs
Weight ([5]; Month 11, 100 mg/day for 2 weeks, 50 mg/day for 1 week, then discontinued): 131.5 lbs
Weight ([5]; Week 2, 300 mg/day, baseline 129.5): 128.25 lbs
Weight ([5]; Week 3, 400 mg/day): 127.0 lbs
Weight ([5]; Week 4, 400 mg/day): 127.25 lbs
Weight ([5]; Week 6, 300 mg/day): 126.0 lbs
Weight ([5]; Week 7, 300 mg/day): 126.3 lbs
Weight ([5]; Week 8, 300 mg/day): 126.0 lbs
weight after treatment was discontinued ([5]; after the tramadol hydrochloride treatment was discontinued): regained
effect on weight during treatment ([5]; during the tramadol hydrochloride treatment): lost weight
